Experimental data as given in patent publication US20210263122A1, “RATIOMETRIC PULSED CEST IMAGING” (BRACCO IMAGING S.P.A., priority 2015, published 2021).

Experiments:
[1] = Chemical exchange rate (kex) of amide protons from 1H-NMR linewidth; assay type: physicochemical
Method: High-resolution 1H-NMR spectra were recorded on a Bruker Avance 600 spectrometer (Bruker BioSpin Rheinstetten, Germany) operating at 14 T (corresponding to a proton Larmor frequency of 600.13 MHz) equipped with a Z-gradient 5 mm inverse probe. Sample temperature control was monitored within +/−0.1 K by means of the BTO2000 variable temperature unit. 1H NMR spectra to measure the linewidth of exchangeable protons were obtained by means of a pulse sequence using water suppression by excitation sculpting with gradients (T. L. Hwang, A. J. Shaka Water Suppression That Works. Excitation Sculpting Using Arbitrary Wave-Forms and Pulsed-Field Gradients, J. Magn. Reson. Ser. A, 1995, 112(3), 275-279). The carrier frequency was carefully set on resonance to the water signal. Simple “excite-detect” acquisitions (typical parameters: 16 ppm spectral window, 32 k complex data points, 3 s relaxation delay, and 64 averaged FIDs) were carried out to measure the linewidths of the exchangeable amide protons at 310 K. In vitro studies were performed by preparing 30 mM solutions of Iodixanol in aqueous phosphate buffer solution (10 mM), with the pH adjusted within the 5.5-7.4 range by addition of aliquots of HCl/NaOH. Capillaries containing the solutions were transferred into a 5 mm NMR tube filled with D2O for field-frequency lock.
Exchange rate values analogously assessed in the pH range of from 5.4 to 7.9 for some radiographic contrast agents according to the invention are provided in the following Table 3.

[2] = 7.05 T, 310 K, pH 7.4; cited from earlier work

Structure (SMILES)	Kex ([1]; pH 5.5, 310K)	Kex ([1]; pH 6.0, 310K)	Kex ([1]; pH 6.3, 310K)	Kex ([1]; pH 6.7, 310K)	Kex ([1]; pH 7.0, 310K)	Kex ([1]; pH 7.4, 310K)	Kex ([1]; pH 7.9, 310K)	Kex ([1]; physiological conditions, Example 1)	averaged Kex exchange rate of amide mobile protons [2]
CC(=O)N(CC(O)CN(C(C)=O)c1c(I)c(C(=O)NCC(O)CO)c(I)c(C(=O)NCC(O)CO)c1I)c1c(I)c(C(=O)NCC(O)CO)c(I)c(C(=O)NCC(O)CO)c1I (stereo not drawn) [Iodixanol]	32 s⁻¹	51 s⁻¹	80 s⁻¹	179 s⁻¹	476 s⁻¹	1213 s⁻¹	1332 s⁻¹	exceeds 200 Hz	–
O=C(NCC(O)CO)c1c(I)c(C(=O)NCC(O)CO)c(I)c(N(CCO)C(=O)CO)c1I (stereo not drawn) [Ioversol]	22 s⁻¹	66 s⁻¹	118 s⁻¹	292 s⁻¹	913 s⁻¹	1628 s⁻¹	3660 s⁻¹	–	–
C[C@H](O)C(=O)Nc1c(I)c(C(=O)NC(CO)CO)c(I)c(C(=O)NC(CO)CO)c1I [Iopamidol]	–	–	–	–	–	–	–	–	about 2560 s^−1
CN(C(=O)CO)c1c(I)c(C(=O)NCC(O)CO)c(I)c(C(=O)NCC(O)CO)c1I (stereo not drawn) [Iomeprol]	30 s⁻¹	88 s⁻¹	164 s⁻¹	430 s⁻¹	794 s⁻¹	1831 s⁻¹	4389 s⁻¹	–	–
CC(=O)N(CC(O)CO)c1c(I)c(C(=O)NCC(O)CO)c(I)c(C(=O)NCC(O)CO)c1I (stereo not drawn) [Iohexol]	22 s⁻¹	69 s⁻¹	139 s⁻¹	372 s⁻¹	923 s⁻¹	1609 s⁻¹	4056 s⁻¹	–	–
